Columns and labels:
[1] = in water; cited from earlier work
[2] = Stability of sodium diclazuril in aqueous solution; assay type: physicochemical; conditions: degrades into its keto-degradant

SMILES | aqueous solubility, saturation concentration [1] | stability in an aqueous solution [2]
N#CC(c1ccc(Cl)cc1)c1c(Cl)cc(-n2ncc(=O)[nH]c2=O)cc1Cl (centres unmarked) [diclazuril] | below 1 μg/L | –
N#CC(c1ccc(Cl)cc1)c1c(Cl)cc(-n2ncc(=O)[n-]c2=O)cc1Cl.[Na+] (centres unmarked) [sodium diclazuril] | – | unstable
